# Laboratory results reported in US7671092B2, “Paclitaxel enhancer compounds” (Synta Pharmaceuticals Corp., priority 2001, dated 2010).
# “And” between values parts separate entries of the source, which are not always exact repeats. Identical values can stand only once.
# Columns and labels:
# [1] = tested on: MDA-435 human breast tumor; assay: In vivo tumor growth inhibition assay, compound plus Paclitaxel given IV to tumor-bearing mice; design: species or system CD-1 nu/nu mice; details: for % Tumor Growth: vehicle = 100
# Description: A supplemented media was prepared from 50% DMEM/Dulbecco Modified Eagle Medium (High Glucose), 50% RPMI 1640, 10% FBS/Fetal Bovine Serum (Hybridoma Tested; Sterile Filtered), 1% L-Glutamine, 1% Penicillin-Streptomycin, 1% MEM Sodium Pyruvate and 1% MEM Non-Essential Amino Acids. FBS was obtained from Sigma Chemical Co. and other ingredients were obtained from Invitrogen Life Technologies, USA). The supplemental media was warmed to 37° C. and 50 ml of media was added to a 175 cm^2 tissue culture flask.
# The cells used in the assay were MDA-435 Human Breast Carcinoma from the American Type Culture Collection. 1 vial of MDA-435 cells from the liquid nitrogen frozen cell stock was removed. The frozen vial of cells was immediately placed into a 37° C. water bath and gently swirled until thawed. The freeze-vial was wiped with 70% ethanol and cells were immediately pipetted into the 175 cm^2 tissue culture flask containing supplemented media. The cells were incubated overnight and the media was removed and replaced with fresh supplemented media the next day. The flask was incubated until flask became about 90% confluent. This took anywhere from 5-7 days.
# The flask was washed with 10 ml of sterile room temperature phosphate buffered saline (PBS). The cells were trypsinized by adding 5 ml of warmed Trypsin-EDTA (Invitrogen) to the flask of cells. […] An equal volume of supplemented media (5 ml) was added to the flask. All the cells were collected into 50 ml tube, and centrifuged at 1000 RPM for 5 minutes at 20° C. The supernatant was aspirated and the cell pellet was resuspended in 10 ml of supplemented media and the cells were counted. 1-3 million cells/flask were seeded into 5-7 tissue culture flasks (175 cm^2). Each flask contained 50 ml of supplemented media. The flasks were incubated until about 90% confluent. The passaging of the cells was repeated until enough cells have been grown for tumor implantation.
# The above procedure for trypsinizing and centrifuging the cells were followed. The supernatant was aspirated and the cell pellet was resuspended in 10 ml of sterile PBS and the cells were counted. The cells were centrifuged and then resuspended with appropriate volume of sterile PBS for injection of correct number of cells needed for tumor implantation. In the case of MDA-435, 100 million cells were suspended with 2.0 ml of sterile PBS to a final concentration of 50 million cells/ml in order to inject 5 million cells in 0.1 ml/mouse.
# Mice (CD-1 nu/nu) were obtained from Charles River Laboratories: nomenclature: Crl:CD-1-nuBR, Age: 6-8 weeks. The mice were allowed to acclimate for 1 week prior to their being used in an experimental procedure.
# Implantation of the MDA-435 tumor cell suspension took place into the corpus adiposum of the female CD-1 nu/nu mouse. […] Tumor cells were implanted subcutaneously into the fat body located in the right quadrant of the abdomen at the juncture of the os coxae (pelvic bone) and the os femoris (femur). 5 million MDA-435 cells in 0.1 ml of sterile PBS were injected using 27 G (½ inch) needle. MDA-435 tumors developed 2-3 weeks after implantation.
# Compound stock solutions were prepared by dissolving the compound in cell-culture-grade DMSO (dimethyl sulfoxide) at the desired concentration. This stock solution in DMSO was sonicated in an ultrasonic water bath until all the powder dissolved.
# [2] = format: in vivo; details: mice treated with Paclitaxel and Compound (1); FIG. 2
# Description: The in vivo anti-cancer enhancing effect of novel compounds was assessed in tumor bearing mice using the tumor growth inhibition assay. Tumor cells were implanted by injection of a tumor cell suspension subcutaneously in the flank of a mouse. […] Animal then begun a multiple injection schedule where the compound and Paclitaxel were given by IV route of administration. Tumors were measured two times a week. During the course of this assay, animals were monitored daily for signs of toxicity including body weight loss.
smiles,measurement,setting,value
CC(=O)O[C@H]1C(=O)[C@@]2(C)[C@H]([C@H](OC(=O)c3ccccc3)[C@]3(O)C[C@H](OC(=O)[C@H](O)[C@@H](NC(=O)c4ccccc4)c4ccccc4)C(C)=C1C3(C)C)[C@]1(OC(C)=O)CO[C@@H]1C[C@@H]2O [Paclitaxel],% Tumor Growth,"[1]; Example 13, Day 23, Group 2: Paclitaxel 2 mg/kg alone, IV, 3 times a week for 3 weeks",86%
same,% Tumor Growth,"[1]; Example 13, Day 23, Group 3: Paclitaxel 5 mg/kg alone, IV, 3 times a week for 3 weeks",55%
same,Average Tumor Volume (mm^3) on Day 23,"[1]; Example 13, Group 2: Paclitaxel 2 mg/kg alone, IV, 3 times a week for 3 weeks",259.8 mm^3
same,Average Tumor Volume (mm^3) on Day 23,"[1]; Example 13, Group 3: Paclitaxel 5 mg/kg alone, IV, 3 times a week for 3 weeks",164.8 mm^3
same,Average Tumor Volume [mm^3],"[1]; Example 14, Day 48, Group 2: Paclitaxel 10 mg/kg alone, IV, 3 times a week for 3 weeks",105 mm^3 and 105.4 mm^3
same,% Tumor Growth Inhibition on Day 48,"[1]; Example 14, Group 2: Paclitaxel 10 mg/kg alone, IV, 3 times a week for 3 weeks",86%
same,Anti-tumor activity,"[1]; Example 14: Paclitaxel 10 mg/kg alone, IV, 3 times a week for 3 weeks",significant anti-tumor activity was observed
same,Average % Tumor Growth Inhibition on Day 27,"[1]; Example 15, Group 2: Paclitaxel 5 mg/kg alone, IV, 3 times a week for 3 weeks",19%
"CN(NC(=O)CC(=O)NN(C)C(=S)c1ccccc1)C(=S)c1ccccc1 [Compound (1), N-Malonyl-bis[N′-methyl-N′-(thiobenzoyl)hydrazide]]",Enhancement of anti-tumor activity of Paclitaxel,"[1]; Example 12, FIG. 1: Compound (1) 25 or 50 mg/kg + Paclitaxel 5 mg/kg, IV, 3 times a week for 3 weeks",significantly enhanced anti-tumor activity of Paclitaxel
same,% Tumor Growth,"[1]; Example 13, Day 23, Groups 4-5: compound 80 mg/kg alone, IV, 3 times a week for 3 weeks",90%
same,% Tumor Growth,"[1]; Example 13, Day 23, Groups 6 and 8: compound 80 mg/kg + Paclitaxel 2 mg/kg, IV, 3 times a week for 3 weeks",64%
same,% Tumor Growth,"[1]; Example 13, Day 23, Groups 7 and 9: compound 80 mg/kg + Paclitaxel 5 mg/kg, IV, 3 times a week for 3 weeks",35%
same,Average Tumor Volume (mm^3) on Day 23,"[1]; Example 13, Groups 4-5: compound 80 mg/kg alone, IV, 3 times a week for 3 weeks",270.0 mm^3
same,Average Tumor Volume (mm^3) on Day 23,"[1]; Example 13, Groups 6 and 8: compound 80 mg/kg + Paclitaxel 2 mg/kg, IV, 3 times a week for 3 weeks",193.3 mm^3
same,Average Tumor Volume (mm^3) on Day 23,"[1]; Example 13, Groups 7 and 9: compound 80 mg/kg + Paclitaxel 5 mg/kg, IV, 3 times a week for 3 weeks",106.2 mm^3
same,Enhancement of anti-tumor activity of Paclitaxel,"[1]; Example 13: compound 80 mg/kg + Paclitaxel at both 2 mg/kg and 5 mg/kg, IV, 3 times a week for 3 weeks",significantly enhanced anti-tumor activity of Paclitaxel
same,Average Tumor Volume [mm^3],"[1]; Example 14, Day 48, Group 3: Compound (1) 50 mg/kg alone, IV, 3 times a week for 3 weeks",754.9 mm^3
same,Average Tumor Volume [mm^3],"[1]; Example 14, Day 48, Group 4: Compound (1) 25 mg/kg + Paclitaxel 10 mg/kg, IV, 3 times a week for 3 weeks",0.59 mm^3
same,% Tumor Growth Inhibition on Day 48,"[1]; Example 14, Group 3: Compound (1) 50 mg/kg alone, IV, 3 times a week for 3 weeks",0%
same,"Tumor volume, fold less than with Paclitaxel alone or Compound (1) alone","[1]; after 24 days of treatment, Paclitaxel 5 mg/kg + Compound (1) 25 mg/kg versus Paclitaxel 5 mg/kg only or Compound (1) 50 mg/kg only, FIG. 1",about five
same,Weight loss over the treatment period,[2],little if any weight loss
